From publication PMC6354023, “A phase I study of the HDM2 antagonist SAR405838 combined with the MEK inhibitor pimasertib in patients with advanced solid tumours” (British Journal of Cancer, 2018)
Like-named read-outs stand apart in the source and are kept apart here.

Tests used:
[1] = Safety assessments: adverse events (NCI-CTCAE v4.03), laboratory abnormalities; format: in vivo, human; details: of 26 treated patients, in combination
Procedure: Safety was assessed by the evaluation of AEs, DLTs, changes in vital signs, ECOG PS, physical examinations,12-lead electrocardiograms, determination of LVEF, ophthalmological examinations and clinical laboratory tests (including haematology, coagulation, blood chemistry and urinalysis).

[2] = Pharmacokinetics of SAR405838 (whole-blood concentrations) in combination; format: in vivo, human; details: for AUC(0-t) / Cmax / half-life / Tmax: human, whole blood, oral; for AUC(0-t): read-out: SAR405838 AUC0–24, mean ± SD; for Cmax: read-out: SAR405838 Cmax, mean ± SD; for half-life: read-out: SAR405838 t1/2 (converted); for Tmax: read-out: SAR405838 tmax, median (range)
Text: Blood samples were collected on Days 1 (for pimasertib only), 2, 3, 8 and 15 of Cycle 1, on Days 1 and 2 of Cycle 2, and on Day 1 of Cycles 3 and 4, to determine the whole-blood and plasma concentrations of SAR405838 and pimasertib, respectively.

MIC-1 = MIC-1 levels in plasma by ELISA; format: in vivo, human
Procedure: MIC-1 protein concentrations were measured in plasma samples using an analytically validated enzyme-linked immunosorbent assay (Quantikine® Human GDF-15 immunoassay). pERK levels were determined by evaluating median value changes in response to ex vivo stimulation with or without phorbol myristate acetate (PMA) over time in whole-blood samples (CD 45^+ and lymphocyte populations) by flow cytometry (BD FACSCanto™ II instrument). Stimulated pERK levels were calculated as percentage (PMA-dimethylsulphoxide [DMSO])/DMSO).

[3] = cited from earlier work
[4] = DL1 SAR405838 200 mg QD + pimasertib 45 mg BID, C1D2
[5] = DL1 SAR405838 200 mg QD + pimasertib 45 mg BID, C2D1
[6] = DL2a SAR405838 200 mg QD + pimasertib 60 mg QD, C1D2
[7] = DL2a SAR405838 200 mg QD + pimasertib 60 mg QD, C2D1
[8] = DL2b SAR405838 300 mg QD + pimasertib 45 mg BID, C1D2
[9] = DL2b SAR405838 300 mg QD + pimasertib 45 mg BID, C2D1
[10] = DL3a SAR405838 300 mg QD + pimasertib 60 mg QD, C1D2
[11] = DL3a SAR405838 300 mg QD + pimasertib 60 mg QD, C2D1

Compound: CC(C)(C)C[C@@H]1N[C@@H](C(=O)N[C@H]2CC[C@H](O)CC2)[C@H](c2cccc(Cl)c2F)[C@]12C(=O)Nc1cc(Cl)ccc12 [SAR405838]
- Patients with dose modification, reduction or omission [1]: 17 patients
- PK in combination compared with PK as monotherapy ([2]; SAR405838 and pimasertib administered in combination): similar
- Exposure change with dose increase (50%) ([2]; between DL1/DL2a (SAR405838 200 mg) and DL2b/DL3a (SAR405838 300 mg)): did not result in SAR405838 exposure increase
- AUC(0-t) [2, 4]: 19300 ng·h/mL
- Cmax [2, 4]: 1570 ± 876 ng/mL
- half-life [2, 4]: 16.1 ± 7.75 h
- Tmax [2, 4]: 2 h
- AUC(0-t) [2, 5]: 14600 ng·h/mL
- Cmax [2, 5]: 1250 ± 668 ng/mL
- half-life [2, 5]: 10.8 h
- Tmax [2, 5]: 1.8 h
- AUC(0-t) [2, 6]: 20800 ng·h/mL
- Cmax [2, 6]: 1500 ± 634 ng/mL
- half-life [2, 6]: 8.86 h
- Tmax [2, 6]: 2 h
- AUC(0-t) [2, 7]: 15600 ng·h/mL
- Cmax [2, 7]: 1050 ± 581 ng/mL
- half-life [2, 7]: 10 h
- Tmax [2, 7]: 2.8 h
- AUC(0-t) [2, 8]: 16300 ng·h/mL
- Cmax [2, 8]: 1100 ± 547 ng/mL
- half-life [2, 8]: 15.5 ± 4.33 h
- Tmax [2, 8]: 3 h
- AUC(0-t) [2, 9]: 15000 ng·h/mL
- Cmax [2, 9]: 1100 ± 361 ng/mL
- half-life [2, 9]: 13.4 ± 2.38 h
- Tmax [2, 9]: 1.5 h
- AUC(0-t) [2, 10]: 21400 ng·h/mL
- Cmax [2, 10]: 1490 ± 939 ng/mL
- half-life [2, 10]: 13.3 ± 4.94 h
- Tmax [2, 10]: 4 h
- AUC(0-t) [2, 11]: 21200 ng·h/mL
- Cmax [2, 11]: 1440 ± 583 ng/mL
- half-life [2, 11]: 14.9 ± 11.1 h
- Tmax [2, 11]: 2 h
- Time of peak MIC-1 elevation (MIC-1; C1D2 and C2D1): 6 h
- Greatest increase in MIC-1 in the DL1 cohort (MIC-1; patient with confirmed PR (endometrial tumour)): 8.8 fold
- MIC-1 elevation, mean vs baseline (MIC-1; plasma, all patients at C1D2 and C2D1): 3.5+ /− 0.8 fold
- Main dose-limiting toxicity, monotherapy [3]: thrombocytopenia
- MTD and recommended phase II dose, monotherapy ([3]; once daily (QD)): 300 mg
